Eight molecules from patent US20220017520A1, “MACROCYCLIC COMPOUND AS CDK INHIBITOR, PREPARATION METHOD THEREFOR, AND USE THEREOF IN MEDICINE” (Keythera (Suzhou) Pharmaceuticals Co. Ltd., priority 2018, published 2022) can be followed below.

For orientation: IC50 means the concentration at which inhibition is half-maximal.

The conditions of data set [1]: amide bond, HATU, dichloromethane, 25.0 °C, 16.0 h.
A further data set addresses CDK4/D3 (Homo sapiens, UniProt P11802). Briefly: Inhibitory activity on CDK4 kinase by Caliper Mobility Shift method. The format is biochemical. The conditions noted are these: CDK4/D3, 28° C. for 5 hours. The method, then: Determination of Inhibitory Effect on CDK4/Cyclin D1
The determination of IC50 of CDK4/Cyclin D1 was conducted according to the following process. A 96-well filter plate (Millipore MADVN6550) was used. The total volume was 0.1 ml, containing buffer solution A (20 mM TRIS (tris[hydroxymethyl]aminomethane) (pH7.4), 50 mM NaCl, 1 mM dithiothreitol, 10 mM MgCl2), 2 μM ATP (containing […][32P]ATP), 20 ng CDK4, […] retinoblastoma protein and the test compound diluted in buffer solution A in an appropriate ratio. Buffer solution A alone without the test compound was used as the control without inhibitory effect. Buffer solution A containing excess EDTA was used to determine the background 32P level in the absence of enzymatic activity. All components except ATP were added to the wells, and the plate was shaked on a plate mixer for 2 minutes. [32P]ATP was added to initiate the reaction, and the plate was incubated at 25° C. for 15 minutes. 0.1 ml of 20% trichloroacetic acid (TCA) was added to stop the reaction. The plate was kept at 4° C. for at least 1 hour to allow the substrate to precipitate. The wells were washed five times with 0.2 ml of 10% TCA, and the binding of 32P was measured using a R plate counter (wallac Inc., Gaithersburg, Md.). IC50 of the test compound was determined by median effect method (Chou, T-C and Talalay P. Applications of the median effect principle for the assessment of low-dose risk of carcinogens and for the quantitation of synergism and antagonism of chemotherapeutic agents. In New Avenues in Developmental Cancer Chemotherapy (Eds. Harrap, K. T. and Connors, T. A.), pp. 37-64. Academic Press, New York, 1987).
(§1) Experimental method: Inhibitory activity on CDK4/6 kinase was determined by Caliper Mobility Shift method
1) Preparation of 1-fold CDK4 kinase buffer solution
800 μL of 1000 mM HEPES stock solution (pH 7.5) and 40 μL of 10% Triton X-100 stock solution were added to 39160 μL of ultra pure water, and the resulting solution was mixed well.
(§2) 25 mL of 4% Coating Reagent #3 (provided with the 12-sipper chip used in Caliper device) stock solution, 50 mL of 1000 mM HEPES stock solution (pH 7.5), 50 mL of 0.5 M EDTA stock solution and 0.25 mL of 30% Brij-35 stock solution were added to 374.75 mL of ultra pure water, and the resulting solution was mixed well.
1) Preparation of 2.5-fold CDK4/D3 kinase solution
7 μL of CDK4/D3 enzyme solution and 9 μL of 1M DTT stock solution were added to 1784 μL of 1-fold CDK4 kinase buffer solution, and the resulting solution was mixed well.
1) Preparation of 2.5-fold CDK4/D3 polypeptide solution
10 µL of 100 mM ATP stock solution, 45 μL of 1M MgCl2 stock solution and 45 μL of FAM-labelled polypeptide 8 were added to 1700 μL of 1-fold CDK4 kinase buffer solution, and the resulting solution was mixed well.
(§3) A 10 mM solution of the test compound in DMSO was diluted with DMSO to obtain a solution with a concentration of 50 μM, which was used as the stock solution. Said stock solution was subjected to 4-fold gradient dilution with DMSO to obtain solutions with a concentration of […], 3.12 μM, 0.78 μM, 0.19 μM, 0.048 μM, 12.2 nM, 3 nM, 0.76 nM and 0.19 nM, respectively. Each of the resulting solution was 10-fold diluted with 1-fold kinase buffer solution to obtain a 5-fold compound solution.
(§4) 1) 5 μL of the prepared 5-fold test compound solution and 10 μL of the prepared 2.5-fold kinase solution were added to the corresponding wells in a 384-well plate, and the plate was incubated at room temperature for 10 minutes.
(§5) 2) 10 μL of the prepared 2.5-fold polypeptide solution was added to the corresponding wells to start the enzymatic reaction, and the plate was incubated at 28° C. for 5 hours.
(§6) 25 μL of stop solution was added to each corresponding well to stop the reaction.
(§7) 8. The data was read by the Caliper device, the inhibition rate was calculated by the following formula, and curve fitting was carried out by GraphPad5.0 software to obtain the IC50 value.

In another data set the target is CDK6/D3 (Homo sapiens, UniProt Q00534). Briefly: Inhibitory activity on CDK6 kinase by Caliper Mobility Shift method. The conditions noted are these: CDK6/D3, 28° C. for 5 hours. The format is biochemical. The method, then: as §1
Sequence of CDK6/D3 (Q00534 whole entry, species assumed): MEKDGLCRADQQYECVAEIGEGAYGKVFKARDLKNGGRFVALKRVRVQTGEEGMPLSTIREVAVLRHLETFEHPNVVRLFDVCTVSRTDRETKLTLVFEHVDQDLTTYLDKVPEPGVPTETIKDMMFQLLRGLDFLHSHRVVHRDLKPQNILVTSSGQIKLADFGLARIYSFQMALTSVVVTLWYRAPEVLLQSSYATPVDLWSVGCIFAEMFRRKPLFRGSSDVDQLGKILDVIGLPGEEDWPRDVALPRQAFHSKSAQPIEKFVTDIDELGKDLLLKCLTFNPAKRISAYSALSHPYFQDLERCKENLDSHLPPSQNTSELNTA
Sequence of CDK6/D3 (P30281 whole entry partner, species assumed): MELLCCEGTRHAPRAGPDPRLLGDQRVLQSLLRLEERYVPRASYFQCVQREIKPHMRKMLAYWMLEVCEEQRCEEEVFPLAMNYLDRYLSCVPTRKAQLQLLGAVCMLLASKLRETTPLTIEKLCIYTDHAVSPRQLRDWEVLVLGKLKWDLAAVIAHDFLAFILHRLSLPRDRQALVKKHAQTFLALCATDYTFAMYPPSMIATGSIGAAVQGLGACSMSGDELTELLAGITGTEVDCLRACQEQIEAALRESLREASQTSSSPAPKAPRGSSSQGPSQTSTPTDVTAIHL
2) Preparation of 1-fold CDK6 kinase buffer solution
50 mL of 1000 mM HEPES stock solution (pH 7.5) and 50 μL of 30% Brij-35 stock solution were added to 949.95 mL of ultra pure water, and the resulting solution was mixed well.
as §2
2) Preparation of 2.5-fold CDK6/D3 kinase solution 18 μL of CDK6/D3 enzyme solution and 14 μL of 1M DTT stock solution were added to 2768 μL of 1-fold CDK6 kinase buffer solution, and the resulting solution was mixed well.
2) Preparation of 2.5-fold CDK6/D3 polypeptide solution
23 μL of 100 mM ATP stock solution, 75 μL of 1M MgCl2 stock solution and 75 μL of FAM-labelled polypeptide 8 were added to 2827 μL of 1-fold CDK6 kinase buffer solution, and the resulting solution was mixed well.
as §3, §4, §5, §6, §7

The test system of another data set is MCF-7 cells. In words: In vitro cell proliferation assay by BrdU method. The following applies: Homo sapiens, MCF7, 72 hours, 10% FBS. Format: cell-based. The method, then: In Vitro Cell Inhibitory Activity of the Compound of the Present Invention
Experimental method: Cell proliferation assay was carried out by BrdU method (BrdU cell proliferation assay kit, Cell Signaling Technology Co.)
Preparation of gradient dilution solution of test compound: the 10 mM stock solution of test compound was subjected to 4-fold serial gradient dilution with DMSO to obtain solutions with a concentration of 2.5 mM, […], respectively. 2 μL of DMSO-diluted compound was added to 198 μL of culture medium containing 10% FBS to obtain 10-fold test compound, wherein the maximum concentration of the test compound was 10 μM, the DMSO concentration was 1%, with a total of 7 concentration gradients.
MCF-7 culture medium: DMEM+10% FBS+0.01 mg/mL insulin
(1) Cells grown to 80% (in exponential growth phase) were digested with pancreatin, and were collected by centrifugation. MDA-MB-435S cells and U87MG cells were re-suspended in a FBS-free culture medium, counted and inoculated to a 96-well plate; MDA-MB-435S cells were inoculated at 3000 cells/well/81 μL, and U87MG cells were inoculated at 4000 cells/well/81 μL. MCF-7 cells were resuspended in a culture medium containing 1% FBS, counted and inoculated to a 96-well plate at 4000 cell/well/82 μL. The cells were incubated in a cell incubator at 37° C.
(2) After 24 hours of incubation, FBS (9 μL) was added to each well of the MDA-MB-435S cells and U87MG cells, and 8 μL of FBS was added to each well of the MCF-7 cells, so as to obtain a final FBS concentration of 10%.
(3) A different concentration of 10-fold test compound (10 μL) was added to each well to obtain a final concentration of test compound of 10 μM, 2.5 μM, 625 nM, 156 nM, 39 nM, 9.8 nM or 2.5 nM, respectively, with 3 repeated wells/group, and the cells were incubated at 37° C. for 72 hours.
(4) 10-fold BrdU solution (10 μL) was added to each well, and the cells were incubated in the incubator for 4 hours, followed by discarding the culture medium.
(5) Fixing/denaturation solution (10 μL) was added to each well, and the cells were incubated at room temperature for 30 minutes, followed by discarding the solution.
(6) 1-fold detection antibody solution (100 μL) was added to each well, the cells were incubated at room temperature for 1 hour, followed by discarding the solution, and the cells were washed with 1-fold washing solution (200 μL/well) three times.
(7) 1-fold HRP-labelled secondary antibody solution (100 μL) was added to each well, the cells were incubated at room temperature for 30 minutes, followed by discarding the solution, and the cells were washed with 1-fold washing solution (200 μL/well) three times.
(8) TMB substrate solution (100 μL) was added to each well, and the cells were incubated at room temperature for 30 minutes.
(9) Stop solution (100 μL) was added to each well, and the OD value at 450 nm was measured by a microplate reader.
1) Cell survival rate (%)=(ODtest compound−ODblank control)/(ODnormal cell control−ODblank control)×100%,
2) The data was processed by GraphPad Prism 5 software to obtain the curve and IC50 values.

Each structure is given as a SMILES string. Like-named read-outs stand apart in the source and are kept apart here.

Sequence of CDK4/D3 (P11802 whole entry, species assumed): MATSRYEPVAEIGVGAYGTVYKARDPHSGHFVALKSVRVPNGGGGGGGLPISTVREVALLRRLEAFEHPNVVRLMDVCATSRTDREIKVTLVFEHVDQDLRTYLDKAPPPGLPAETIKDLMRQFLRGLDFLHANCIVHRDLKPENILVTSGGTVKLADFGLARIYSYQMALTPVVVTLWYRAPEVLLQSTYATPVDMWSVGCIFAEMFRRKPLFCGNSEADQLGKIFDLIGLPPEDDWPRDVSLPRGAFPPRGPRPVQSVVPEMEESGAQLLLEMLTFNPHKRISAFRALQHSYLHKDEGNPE
Sequence of CDK4/D3 (P30281 whole entry partner, species assumed): as the sequence (P30281 whole entry partner, species assumed) above

As to `CCN1CCN(Cc2cnc3cc2NC(=O)CC(C)n2c(C)nc4c(F)cc(cc42)-c2nc(ncc2F)N3)CC1` (stereo not drawn) [Example 1, 4^5-((4-Ethylpiperazin-1-yl)methyl)-1^4,2^5-difluoro-1^2,8-dimethyl-1^1H-3,5-diaza-1(6,1)-benzo[d]imidazola-2(4,2)-pyrimidina-4(2,4)-pyridinacyclooctaphan-6-one], the ring closure, yield of all isomers in data set [1] (from CCN1CCN(Cc2cnc(Nc3ncc(F)c(-c4cc(F)c5nc(C)n(C(C)CC(=O)O)c5c4)n3)cc2N)CC1, 14.0 mM) was 8.3%. Also, the half-maximal inhibitory concentration (IC50) at CDK4/D3 is 0.7 nM; on CDK6/D3, 0.48 nM; in the data set on MCF-7 cells, 142 nM.
`CCN1CCN(Cc2cnc3cc2NC(=O)C[C@@H](C)n2c(C)nc4c(F)cc(cc42)-c2nc(ncc2F)N3)CC1` [Example 2, (R)-4^5-((4-Ethylpiperazin-1-yl)methyl)-1^4,2^5-difluoro-1^2,8-dimethyl-1^1H-3,5-diaza-1(6,1)-benzo[d]imidazola-2(4,2)-pyrimidina-4(2,4)-pyridinacyclooctaphan-6-one] gave a ring closure, yield of all isomers in data set [1] (from CCN1CCN(Cc2cnc(Nc3ncc(F)c(-c4cc(F)c5nc(C)n([C@H](C)CC(=O)O)c5c4)n3)cc2N)CC1, 13.8 mM) of 7.4%. Also, the IC50 on CDK4/D3 is 0.49 nM; at CDK6/D3, 0.35 nM; with MCF-7 cells, 42 nM.
`CCN1CCN(Cc2cnc3cc2NC(=O)C[C@H](C)n2c(C)nc4c(F)cc(cc42)-c2nc(ncc2F)N3)CC1` [Example 3, (S)-4^5-((4-Ethylpiperazin-1-yl)methyl)-1^4,2^5-difluoro-1^2,8-dimethyl-1^1H-3,5-diaza-1(6,1)-benzo[d]imidazola-2(4,2)-pyrimidina-4(2,4)-pyridinacyclooctaphan-6-one]: the results for the half-maximal inhibitory concentration (IC50) at CDK4/D3, at CDK6/D3 and with MCF-7 cells were 15 nM, 27 nM and 4120 nM, respectively.
In data set [1] (from CCN1CCN(Cc2cnc(Nc3ncc(F)c(-c4cc(F)c5nc(C)n(CCC(=O)O)c5c4)n3)cc2N)CC1, 18.0 mM), `CCN1CCN(Cc2cnc3cc2NC(=O)CCn2c(C)nc4c(F)cc(cc42)-c2nc(ncc2F)N3)CC1` [Example 4, 4^5-((4-Ethylpiperazin-1-yl)methyl)-1^4,2^5-difluoro-1^2-methyl-1^1H-3,5-diaza-1(6,1)-benzo[d]imidazola-2(4,2)-pyrimidina-4(2,4)-pyridinacyclooctaphan-6-one] came in with a ring closure, yield of all isomers of 7.3%. Further, the IC50 was found to be 0.78 nM at CDK4/D3, 1.13 nM at CDK6/D3 and 132 nM in the data set with MCF-7 cells.
Consider `CCN1CCN(Cc2cnc3cc2NCCC(C)n2c(C)nc4c(F)cc(cc42)-c2nc(ncc2F)N3)CC1` (stereo not drawn) [Example 5, 4^5-((4-Ethylpiperazin-1-yl)methyl)-1^4,2^5-difluoro-1^2,8-dimethyl-1^1H-3,5-diaza-1(6,1)-benzo[d]imidazola-2(4,2)-pyrimidina-4(2,4)-pyridinacyclooctaphane], for which the concentration for half-maximal inhibition (IC50) at CDK4/D3 amounted to 21 nM; on CDK6/D3, 14 nM.
`CCN1CCN(Cc2cnc3cc2NC(=O)CC(C)n2ccc4ccc(cc42)-c2nc(ncc2F)N3)CC1` (stereo not drawn) [Example 7, 4^5-((4-Ethylpiperazin-1-yl)methyl)-2^5-fluoro-8-methyl-1^1H-3,5-diaza-1(6,1)-indola-2(4,2)-pyrimidina-4(2,4)-pyridinacyclo-octaphan-6-one] yielded a ring closure, yield of all isomers in data set [1] (from CCN1CCN(Cc2cnc(Nc3ncc(F)c(-c4ccc5ccn(C(C)CC(=O)O)c5c4)n3)cc2N)CC1, 14.0 mM) of 33.3%. For the same molecule, the IC50 on CDK4/D3 amounted to 1.5 nM; at CDK6/D3, 2.5 nM.
Turning to `CCN1CCN(Cc2cnc3cc2NC(=O)CC(C)(C)n2c(C)nc4c(F)cc(cc42)-c2nc(ncc2F)N3)CC1` [Example 8, 4^5-((4-Ethylpiperazin-1-yl)methyl)-1^4,2^5-difluoro-1^2,8,8-trimethyl-1^1H-3,5-diaza-1(6,1)-benzo[d]imidazola-2(4,2)-pyrimidina-4(2,4)-pyridinacyclooctaphan-6-one], the half-inhibitory concentration (IC50) was found to be 8 nM on CDK4/D3 and 10 nM at CDK6/D3.
On the same counts, the results for `CCN1CCN(Cc2cnc3cc2NC(=O)CC2(CC2)n2c(C)nc4c(F)cc(cc42)-c2nc(ncc2F)N3)CC1` [Example 9, 5′-((4-Ethylpiperazin-1-yl)methyl)-4′,5′-difluoro-2′-methylspiro[cyclopropane-1,8′-3,5-diaza-1(6,1)-benzo[d]imidazola-2(4,2)-pyrimidina-4(2,4)-pyridinacyclooctaphan]-6′-one] are 5 nM and 12 nM.
